# Experimental data taken from ChEMBL document CHEMBL4346691, “GABA allosteric modulators: An overview of recent developments in non-benzodiazepine modulators” (Eur J Med Chem, 2019).
# What was measured:
# [1] = Inhibition of BZD receptor (unknown origin); parameters: species or system Homo sapiens
# [2] = species on record: Homo sapiens; test: Positive allosteric modulation of human GABA-A alpha4beta3delta receptor expressed in mouse L(tk-) cells assessed as GABA-induced membrane potential at 1 uM incubated for 2.5 min by FLIPR assay relative to control; assay type: cell-based
# [3] = Displacement of [3H]-Flumazenil from GABAA/BZD receptor in Sprague-Dawley rat cerebral cortex incubated for 40 mins by liquid scintillation counting method
# [4] = system: Xenopus laevis; test: Anaesthetic activity in Xenopus laevis tadpoles assessed as dose causing loss of righting reflex measured every 10 mins up to 120 mins; assay type: functional, organism-based
# [5] = Binding affinity to recombinant human GABA-A alpha2beta3gamma2 receptor expressed in L(tk) cells; assay type: cell-based
# [6] = molecular target: T1, GABA-A receptor; alpha-1/beta-2/gamma-2 (Homo sapiens) (UniProt P14867+P47870+P18507); test: Positive allosteric modulation of recombinant human GABAA alpha1beta2gamma2s receptor expressed in Xenopus laevis oocytes assessed as GABA-stimulated current amplitude at 300 uM measured for 2 min by electrophysiological method relative to control; assay type: cell-based
# [7] = Displacement of [3H]-Flumazenil from GABAA/BZD receptor in rat cortical membranes incubated for 40 mins by radioligand binding assay; assay type: cell membranes
# [8] = molecular target: T2, GABA-A receptor; alpha-5/beta-3/gamma-2 (Homo sapiens) (UniProt P18507+P28472+P31644); test: Inverse agonist activity at recombinant human GABA-A alpha5beta3gamma2 receptor expressed in Xenopus laevis oocytes relative to control; assay type: cell-based
# [9] = molecular target: T3, GABA-A receptor; alpha-1/beta-2/gamma-2 (Homo sapiens, UniProt P14867+P18507+P47870); test: Positive allosteric modulation of human recombinant GABA-A alpha1beta2gamma2L receptor expressed in Xenopus laevis oocytes by two-electrode voltage clamp method; assay type: cell-based
# T3 sequence (P14867 whole entry): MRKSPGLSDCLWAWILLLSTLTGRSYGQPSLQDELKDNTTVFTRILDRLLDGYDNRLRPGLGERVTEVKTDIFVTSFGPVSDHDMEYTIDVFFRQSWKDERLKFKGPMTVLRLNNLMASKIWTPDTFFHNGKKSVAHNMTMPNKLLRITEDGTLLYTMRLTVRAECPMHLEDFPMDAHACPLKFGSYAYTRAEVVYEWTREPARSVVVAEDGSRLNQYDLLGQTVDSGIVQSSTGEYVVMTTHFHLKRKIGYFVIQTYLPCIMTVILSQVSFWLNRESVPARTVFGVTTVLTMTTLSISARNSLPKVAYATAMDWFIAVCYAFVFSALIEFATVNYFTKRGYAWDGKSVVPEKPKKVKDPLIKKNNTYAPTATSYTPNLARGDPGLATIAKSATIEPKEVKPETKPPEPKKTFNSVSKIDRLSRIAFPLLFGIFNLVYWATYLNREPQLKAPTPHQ
# T3 sequence (P47870 whole entry): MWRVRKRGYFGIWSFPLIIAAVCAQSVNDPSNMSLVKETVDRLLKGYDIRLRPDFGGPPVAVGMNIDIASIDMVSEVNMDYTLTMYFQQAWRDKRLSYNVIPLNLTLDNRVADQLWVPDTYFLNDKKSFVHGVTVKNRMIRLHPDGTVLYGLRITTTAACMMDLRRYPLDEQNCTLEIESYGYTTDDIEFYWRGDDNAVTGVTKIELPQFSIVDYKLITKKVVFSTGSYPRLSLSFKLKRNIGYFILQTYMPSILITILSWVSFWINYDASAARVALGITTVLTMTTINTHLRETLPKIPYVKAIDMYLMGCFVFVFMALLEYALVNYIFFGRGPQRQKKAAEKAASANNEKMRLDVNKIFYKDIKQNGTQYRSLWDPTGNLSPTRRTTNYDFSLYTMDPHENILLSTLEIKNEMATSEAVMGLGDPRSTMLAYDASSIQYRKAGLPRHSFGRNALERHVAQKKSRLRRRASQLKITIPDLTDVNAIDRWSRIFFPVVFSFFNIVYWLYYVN
# T3 sequence (P18507 whole entry): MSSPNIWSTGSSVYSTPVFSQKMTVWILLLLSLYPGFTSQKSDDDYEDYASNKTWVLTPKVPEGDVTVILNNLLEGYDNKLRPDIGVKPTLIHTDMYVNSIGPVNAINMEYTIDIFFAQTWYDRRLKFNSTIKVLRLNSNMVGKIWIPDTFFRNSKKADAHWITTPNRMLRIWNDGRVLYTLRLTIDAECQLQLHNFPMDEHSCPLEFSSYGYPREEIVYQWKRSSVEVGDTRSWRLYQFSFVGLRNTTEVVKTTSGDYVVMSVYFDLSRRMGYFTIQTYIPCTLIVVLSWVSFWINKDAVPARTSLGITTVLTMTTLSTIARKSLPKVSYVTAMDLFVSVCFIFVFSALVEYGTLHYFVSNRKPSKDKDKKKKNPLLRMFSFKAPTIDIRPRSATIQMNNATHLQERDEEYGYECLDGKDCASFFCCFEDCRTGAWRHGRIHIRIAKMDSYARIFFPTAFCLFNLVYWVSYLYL
# [10] = molecular target: T1, GABA-A receptor; alpha-1/beta-2/gamma-2 (Homo sapiens); test: Positive allosteric modulation of human recombinant GABA-A alpha1beta2gamma2L receptor expressed in Xenopus laevis oocytes assessed as maximal current response by two-electrode voltage clamp method relative to control; assay type: cell-based
# [11] = Displacement of [3H]-Flumazenil from GABAA/BZD receptor in rat cortical membranes; assay type: cell membranes
# [12] = Binding affinity to human GABA-A alpha4beta2delta receptor expressed in Xenopus laevis oocytes; assay type: cell-based
# [13] = Binding affinity to human GABA-A alpha4beta3delta receptor expressed in Xenopus laevis oocytes; assay type: cell-based
# [14] = species on record: Homo sapiens; test: Agonist activity at human GABA-A alpha4beta2delta receptor expressed in Xenopus laevis oocytes assessed as maximal GABA response by electrophysiology method relative to GABA; assay type: cell-based
# [15] = species on record: Homo sapiens; test: Partial agonist activity at human GABA-A alpha4beta3delta receptor expressed in Xenopus laevis oocytes assessed as maximal GABA response by electrophysiology method relative to GABA; assay type: cell-based
# [16] = molecular target: Gamma-aminobutyric acid receptor subunit alpha-4/beta-1/delta (Homo sapiens) (UniProt P48169+O14764+P18505); test: Partial agonist activity at human GABA-A alpha4beta1delta receptor expressed in Xenopus laevis oocytes assessed as maximal GABA response by electrophysiology method relative to GABA; assay type: cell-based
# [17] = species on record: Homo sapiens; test: Selectivity ratio, ratio of EC50 for human GABA-A alpha4beta1delta receptor expressed in Xenopus laevis oocytes to EC50 for human GABA-A alpha4beta2delta receptor expressed in Xenopus laevis oocytes; assay type: cell-based
# [18] = species on record: Homo sapiens; test: Selectivity ratio, ratio of EC50 for human GABA-A alpha4beta1delta receptor expressed in Xenopus laevis oocytes to EC50 for human GABA-A alpha4beta3delta receptor expressed in Xenopus laevis oocytes; assay type: cell-based
# [19] = Oral bioavailability in rat at 3 mg/kg; assay type: ADME, organism-based; settings: in vivo
# [20] = molecular target: T1, GABA-A receptor; alpha-1/beta-2/gamma-2 (Homo sapiens); test: Positive allosteric modulation of human GABA-A alpha1beta2gamma2S receptor expressed in Xenopus laevis oocytes assessed as increase in GABA-induced chloride channel current at 100 uM by two-electrode voltage clamp method relative to control; assay type: cell-based
# [21] = molecular target: T3, GABA-A receptor; alpha-1/beta-2/gamma-2; test: Positive allosteric modulation of human GABA-A alpha1beta2gamma2S receptor expressed in Xenopus laevis oocytes assessed as increase in GABA-induced chloride channel current by two-electrode voltage clamp method relative to control; assay type: cell-based
# [22] = molecular target: T1, GABA-A receptor; alpha-1/beta-2/gamma-2 (Homo sapiens); test: Positive allosteric modulation of human GABA-A alpha1beta2gamma2S receptor expressed in Xenopus laevis oocytes assessed as increase in GABA-induced chloride channel current by two-electrode voltage clamp method; assay type: cell-based
# [23] = species on record: Homo sapiens; test: Positive allosteric modulation of human GABA-A alpha4beta3delta receptor expressed in mouse L(tk-) cells assessed as GABA-induced membrane potential at 10 uM incubated for 2.5 min by FLIPR assay relative to control; assay type: cell-based
# [24] = species on record: Homo sapiens; test: Positive allosteric modulation of human GABAA alpha4beta3gamma2 receptor expressed in mouse L(tk-) cells assessed as GABA-induced membrane potential at 10 uM incubated for 2.5 min by FLIPR assay relative to control; assay type: cell-based
# [25] = molecular target: GABA-A receptor; alpha-1/beta-3/gamma-2 (Homo sapiens) (UniProt P14867+P18507+P28472); test: Positive allosteric modulation of human GABA-Aalpha1beta3gamma2 receptor expressed in mouse L(tk-) cells assessed as GABA-induced membrane potential at 10 uM incubated for 2.5 min by FLIPR assay relative to control; assay type: cell-based
# [26] = molecular target: GABA-A receptor; anion channel; test: Displacement of [35S]TBPS from Sprague-Dawley rat brain cortical membrane GABAA receptor incubated for 90 mins by scintillation counting method
# [27] = molecular target: T2, GABA-A receptor; alpha-5/beta-3/gamma-2 (Homo sapiens); test: Inverse agonist activity at recombinant human GABA-A alpha5beta3gamma2 receptor expressed in mouse L(tk-) cells by whole-cell patch-Clamp method; assay type: cell-based
# [28] = molecular target: T4, GABA-A receptor; alpha-5/beta-3/gamma-2 (Homo sapiens, UniProt P18507+P28472+P31644); test: Inverse agonist activity at recombinant human GABA-A alpha5beta3gamma2 receptor expressed in mouse L(tk-) cells by radioligand binding assay; assay type: cell-based
# T4 sequence (P18507 whole entry): T3 sequence (P18507 whole entry)
# T4 sequence (P28472 whole entry): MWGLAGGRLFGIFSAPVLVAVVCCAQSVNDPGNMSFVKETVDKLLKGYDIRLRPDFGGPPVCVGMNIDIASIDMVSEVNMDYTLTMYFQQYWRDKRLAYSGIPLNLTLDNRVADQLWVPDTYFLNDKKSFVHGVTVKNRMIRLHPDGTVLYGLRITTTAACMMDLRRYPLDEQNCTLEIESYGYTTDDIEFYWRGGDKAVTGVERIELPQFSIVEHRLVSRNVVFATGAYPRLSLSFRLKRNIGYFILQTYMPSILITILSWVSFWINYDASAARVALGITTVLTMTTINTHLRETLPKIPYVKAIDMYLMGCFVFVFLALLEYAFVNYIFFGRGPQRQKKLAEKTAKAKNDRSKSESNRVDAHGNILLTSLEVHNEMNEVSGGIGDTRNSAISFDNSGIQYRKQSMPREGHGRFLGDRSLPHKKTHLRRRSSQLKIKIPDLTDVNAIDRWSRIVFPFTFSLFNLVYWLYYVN
# T4 sequence (P31644 whole entry): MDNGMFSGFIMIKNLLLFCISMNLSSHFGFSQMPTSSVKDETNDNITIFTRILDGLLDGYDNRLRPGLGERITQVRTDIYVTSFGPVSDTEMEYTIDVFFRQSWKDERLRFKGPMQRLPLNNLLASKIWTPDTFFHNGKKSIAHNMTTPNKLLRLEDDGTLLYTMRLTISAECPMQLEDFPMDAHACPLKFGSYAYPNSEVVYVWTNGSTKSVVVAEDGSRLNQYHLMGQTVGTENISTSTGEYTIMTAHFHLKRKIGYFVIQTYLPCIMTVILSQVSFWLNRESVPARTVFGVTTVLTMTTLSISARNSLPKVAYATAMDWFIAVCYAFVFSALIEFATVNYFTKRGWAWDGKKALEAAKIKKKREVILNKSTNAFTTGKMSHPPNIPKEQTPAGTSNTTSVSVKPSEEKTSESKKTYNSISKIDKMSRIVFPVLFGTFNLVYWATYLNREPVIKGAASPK
structure (smiles),measurement,setting,value
O=c1c2c[nH]c3c(c-2nn1-c1ccc(Cl)cc1)CCCC3,IC50,[1],1 nM
O=C(Nc1c(-c2cccs2)nc2ccccn12)c1ccc(Cl)cc1,Activity,[2],126%
O=C1C[C@@H](c2ccc(O)cc2)Oc2cc(O)c(-c3c(O)cc(O)c4c(=O)cc(-c5ccc(O)cc5)oc34)c(O)c21,Ki,[3],45 nM
CC(C)C1CCCC(C(C)C)C1O (stereo not drawn),EC50,[4],14000 nM
O=C1C[C@@H](c2ccc(O)cc2)Oc2c1c(O)cc(O)c2-c1c(O)cc(O)c2c(=O)cc(-c3ccc(O)cc3)oc12,Ki,[3],280 nM
c1ccc(COc2nn3c(-c4ccccc4)nnc3c3ccccc23)cc1,Ki,[5],16 nM
CC(C)[C@H]1CC[C@@H](C)C[C@@H]1O,Activity,[6],226%
CCCC(=O)Nc1nsc2[nH]c3ccc(C)cc3c(=O)c12,Ki,[7],2.8 nM
Cc1cc(-c2nnc3c4ccccc4c(OCc4cn(C)nn4)nn23)no1,Efficacy,[8],-29%
CCCc1cc2c(=O)c(-c3ccc4c(c3)OCO4)c(CC)oc2cc1OC(=O)CC,EC50,[9],9300 nM
same,Emax,[10],1080%
CCOC(=O)c1cnc2ccc(C(F)(F)F)cc2c1O,Ki,[11],122 nM
C=C(C)[C@H]1CC[C@H](C)C[C@@H]1O,Activity,[6],280%
COc1ccccc1-c1oc2ccc(C)cc2c(=O)c1O,EC50,[12],1400 nM
same,EC50,[13],2500 nM
same,Imax,[14],105%
same,Imax,[15],105%
same,Imax,[16],61%
same,Ratio EC50,[17],10
same,Ratio EC50,[18],10
c1ccc(-c2nnc3c4c(c(OCc5ccccn5)nn23)C2CCC4CC2)cc1,Ki,[5],26 nM
same,bioavailability,[19],33%
CC(C)=CCOc1c2occc2cc2ccc(=O)oc12,Activity,[20],> 20%
CC1(C)O[C@H]1COc1c2ccoc2cc2oc(=O)ccc12 [OXYPEUCEDANIN],Activity,[20],> 20%
same,EC50,[21],25000 nM
same,Activity,[22],547%
CC1(C)O[C@@H]1COc1c2occc2cc2ccc(=O)oc12,Activity,[20],> 20%
CC1CCCC(C)C1O (stereo not drawn),EC50,[4],13100 nM
OC1CCCCC1,Activity,[6],30.1%
CCCCCc1nsc2[nH]c3ccc(C)cc3c(=O)c12,Ki,[7],13 nM
COc1c2ccoc2c(OCC=C(C)C)c2oc(=O)ccc12,Activity,[20],> 20%
CC1=CCC(C(C)(C)O)CC1 (stereo not drawn),Activity,[6],91.2%
c1ccc(-c2nnc3c4ccccc4c(OCc4ccccn4)nn23)cc1,Ki,[5],1.7 nM
O=C(Nc1c(-c2cccs2)nc2c(Br)cc(Br)cn12)c1ccc(Cl)cc1,Activity,[23],975%
same,Activity,[24],306%
same,Activity,[25],407%
CCNC1=Nc2ccc(Cl)cc2C(C)(c2ccccc2)O1 (stereo not drawn) [ETIFOXINE],IC50,[26],6700 nM
Cc1cc(-c2nncc3c(C(C)(C)C)c(OCc4ncnn4C)nn23)no1,Efficacy,[27],-55%
same,Ki,[28],3 nM
COc1ccc2ccc(=O)oc2c1CC=C(C)C [OSTHOLE],Activity,[20],> 20%
same,EC50,[21],14000 nM
same,Activity,[22],116%
CC(C)=CCOc1c2ccoc2cc2oc(=O)ccc12,Activity,[20],> 20%
